Test results: EP4603105A1, “PHARMACEUTICAL COMPOSITION CONTAINING CYCLIC COMPOUND HAVING SELECTIVE KRAS INHIBITORY EFFECT AGAINST HRAS AND NRAS” (CHUGAI SEIYAKU KABUSHIKI KAISHA, priority 2022, dated 2024)
Where a SMILES comes first, the peptide text is derived from it. Bridges are numbered along the chain shown (N, C = ends). [ ]: non-standard residue; d: D form. The star is where a group is joined. hPhe(3-Cl-4-CF3) = N[C@@H](CCc1ccc(C(F)(F)F)c(Cl)c1)C(=O)O; NPrPhe(4-CF3) = CCCN[C@@H](Cc1ccc(C(F)(F)F)cc1)C(=O)O; Abu(4,4,4-F3) = N[C@@H](CC(F)(F)F)C(=O)O; NMeGly(cPent) = CN[C@H](C(=O)O)C1CCCC1; Hyp = O=C(O)[C@@H]1C[C@@H](O)CN1; NMeD = CN[C@@H](CC(=O)O)C(=O)O; NMeL = CN[C@@H](CC(C)C)C(=O)O; hPip = O=C(O)[C@@H]1CCCCCN1; Morpholide = C1CN(*)CCO1; Ac5c = NC1(C(=O)O)CCCC1; Aze = O=C(O)[C@@H]1CCN1; Ac4c = NC1(C(=O)O)CCC1; Sar = CNCC(=O)O

Key:
[1] = target: GDP-bound KRAS wild-type protein (Homo sapiens, UniProt P01116); assay: Binding to KRAS by surface plasmon resonance (SPR), dissociation constant KD
Sequence of GDP-bound KRAS wild-type protein (P01116 1-188 isoform P01116-2): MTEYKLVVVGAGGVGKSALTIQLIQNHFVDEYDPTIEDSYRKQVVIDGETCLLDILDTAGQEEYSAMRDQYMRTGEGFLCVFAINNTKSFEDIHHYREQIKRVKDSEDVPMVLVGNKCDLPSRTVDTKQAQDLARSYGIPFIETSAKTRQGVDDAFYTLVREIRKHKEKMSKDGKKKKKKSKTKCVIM
How it was run: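 Read-out is KD from 1:1 fitting of single-cycle kinetics sensorgrams, blank-cycle and reference-surface corrected. Proteins were GDP-loaded, biotinylated Avi-fusions freshly captured each cycle at roughly 100–300 RU. Runs were at 30°C in HBS pH 7.4 with MgCl2, GDP and 4% DMSO.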

[2] = target: GDP-bound NRAS wild-type protein (Homo sapiens, UniProt P01111); assay: Binding to NRAS by surface plasmon resonance (SPR), KD and KD ratio to KRAS
Sequence of GDP-bound NRAS wild-type protein (P01111 whole entry): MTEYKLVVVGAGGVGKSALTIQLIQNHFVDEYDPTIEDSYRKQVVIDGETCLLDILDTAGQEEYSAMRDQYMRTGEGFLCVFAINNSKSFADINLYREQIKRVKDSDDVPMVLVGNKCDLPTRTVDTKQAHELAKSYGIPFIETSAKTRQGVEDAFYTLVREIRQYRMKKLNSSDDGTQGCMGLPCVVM
How it was run: (§1)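 Recombinant RAS proteins bearing a biotinylated Avi tag and loaded with GDP served as the captured ligand, recaptured fresh every cycle. Binding responses were referenced to an uncoated surface and a buffer-only blank cycle. Dissociation constants were obtained by 1:1 model fitting at 30°C.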

[3] = target: HRAS wild-type protein (Homo sapiens, UniProt P01112); assay: Binding to HRAS by surface plasmon resonance (SPR), KD and KD ratio to KRAS
Sequence of HRAS wild-type protein (P01112 whole entry): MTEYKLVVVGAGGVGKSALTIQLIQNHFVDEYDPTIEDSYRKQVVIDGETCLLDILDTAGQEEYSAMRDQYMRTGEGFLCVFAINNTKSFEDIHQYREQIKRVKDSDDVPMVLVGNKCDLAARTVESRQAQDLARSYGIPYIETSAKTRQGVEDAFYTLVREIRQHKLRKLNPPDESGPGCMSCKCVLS
How it was run: as §1

[4] = tested on: human lung cancer strain NCI-H441; format: cell-based
How it was run: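 Signal came from […] measured per well once the reagent was added. Beforehand, cells were cultured at 37°C and 5% carbon dioxide on a compound series serially diluted in dimethyl sulfoxide.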

[5] = ratio of KD for GDP-bound NRAS wild-type protein to KD for KRAS
[6] = ratio of KD for HRAS wild-type protein to KD for KRAS

Row | Kd ([1]; Single Cycle Kinetics, 1:1 binding model) [nM] | IC50 [4] [nM] | Kd ([1]; Single Cycle Kinetics) [nM] | Kd ([1]; 1:1 binding model) [nM] | Structure (SMILES) | NRAS /KRAS ([2]; ratio of KD value for GDP-bound NRAS wild-type protein to KD value for KRAS (SPR)) | HRAS /KRAS ([3]; ratio of KD value for HRAS wild-type protein to KD value for KRAS (SPR)) | NRAS /KRAS [2, 5] | HRAS /KRAS [3, 6]
1 | 0.1 | 9.8 | – | – | CC[C@H](C)[C@@H]1NC(=O)[C@H](CC)N(C)C(=O)C[C@@H](C(=O)N(C)C)N(C)C(=O)[C@H](C2CCCC2)N(C)C(=O)C2(CC(C)(C)C2)NC(=O)[C@@H]2C[C@@H](C)CN2C(=O)[C@H](CCc2ccc(C(F)(F)F)c(Cl)c2)NC(=O)CN(C)C(=O)[C@H](Cc2ccc(C)cc2)N2CC/C=C\C[C@@H](C2=O)N(C)C(=O)CN(C)C1=O [PP1846] | A (a compound having 10 or more and less than 20 is denoted as A) | B (a compound having 3 or more and less than 10 is denoted as B) | – | –
2 | – | 48.8 | 0.57 | – | CCO[C@@H]1C[C@H]2C(=O)NC3(CCCC3)C(=O)N(C)[C@@H](C3CCCC3)C(=O)N(C)[C@H](C(=O)N3CCOCC3)CC(=O)N(C)[C@@H](CC(C)C)C(=O)N[C@@H]([C@@H](C)CC)C(=O)N(C)CC(=O)N(C)[C@H]3CCCCCN(C3=O)[C@@H](Cc3ccc(F)cc3)C(=O)N(C)CC(=O)N[C@@H](CCc3ccc(C(F)(F)F)c(Cl)c3)C(=O)N2C1 [PP0965] | – | – | B (a compound having 3 or more and less than 10 is denoted as B) | B (a compound having 3 or more and less than 10 is denoted as B)
3 | – | 112 | – | 1.9 | CCCN1C(=O)CN(C)C(=O)[C@@H]2CCN2C(=O)[C@H](CC(F)(F)F)NC(=O)[C@H](CC(C)C)N(C)C(=O)C[C@@H](C(=O)N2CCOCC2)N(C)C(=O)[C@H](C2CCCC2)N(C)C(=O)C2(CCCC2)NC(=O)[C@@H]2CCCN2C(=O)[C@H](CCc2ccc(C(F)(F)F)c(Cl)c2)NC(=O)CN(C)C(=O)[C@@H]1Cc1ccc(C(F)(F)F)cc1 [PP0304] ([NMeL][Abu(4,4,4-F3)][Aze][Sar][NPrPhe(4-CF3)][Sar][hPhe(3-Cl-4-CF3)]P[Ac5c][NMeGly(cPent)][NMeD]-Morpholide; lactam N-11) | – | – | B (a compound having 3 or more and less than 10 is denoted as B) | B (a compound having 3 or more and less than 10 is denoted as B)
4 | – | 110 | – | 0.85 | CCCN1C(=O)CN(C)C(=O)[C@@H]2CCN2C(=O)[C@H]([C@@H](C)CC)NC(=O)[C@H](CC(C)C)N(C)C(=O)C[C@@H](C(=O)N(C)C)NC(=O)[C@H](C2CCCC2)N(C)C(=O)C2(CCC2)NC(=O)[C@@H]2C[C@@H](OCC)CN2C(=O)[C@H](CCc2ccc(C(F)(F)F)c(Cl)c2)NC(=O)CN(C)C(=O)[C@@H]1Cc1ccc(C(F)(F)F)cc1 [PP0378] ([NMeL]I[Aze][Sar][NPrPhe(4-CF3)][Sar][hPhe(3-Cl-4-CF3)][Hyp](Et)[Ac4c][NMeGly(cPent)]D-NMe2; lactam N-11) | – | – | B (a compound having 3 or more and less than 10 is denoted as B) | B (a compound having 3 or more and less than 10 is denoted as B)
5 | – | 126 | – | 1.6 | CCCN1C(=O)CN(C)C(=O)[C@@H]2CCN2C(=O)[C@H]([C@@H](C)CC)NC(=O)[C@@H]2CCCCCN2C(=O)C[C@@H](C(=O)N2CCOCC2)N(C)C(=O)[C@H](C2CCCC2)N(C)C(=O)C2(CCCC2)NC(=O)[C@@H]2CCCN2C(=O)[C@H](CCc2ccc(C(F)(F)F)c(Cl)c2)NC(=O)CN(C)C(=O)[C@@H]1Cc1ccc(C(F)(F)F)cc1 [PP0302] ([hPip]I[Aze][Sar][NPrPhe(4-CF3)][Sar][hPhe(3-Cl-4-CF3)]P[Ac5c][NMeGly(cPent)][NMeD]-Morpholide; lactam N-11) | – | – | B (a compound having 3 or more and less than 10 is denoted as B) | C (A compound having a KD ratio of 0.1 or more and less than 3 is denoted as C)
6 | – | 41.3 | – | 0.96 | CCO[C@@H]1C[C@H]2C(=O)NC3(CC(C)(C)C3)C(=O)N(C)[C@@H](C3CCCC3)C(=O)N(C)[C@H](C(=O)N(C)CC)CC(=O)N(C)[C@@H]([C@@H](C)OC)C(=O)N[C@@H]([C@@H](C)CC)C(=O)N3CCC[C@H]3C(=O)N(C)[C@H]3C/C=C\CCN(C3=O)[C@@H](Cc3ccc(C)cc3)C(=O)N(C)CC(=O)N[C@@H](CCc3ccc(C(F)(F)F)c(Cl)c3)C(=O)N2C1 [PP3192] | – | – | A (a compound having 10 or more and less than 20 is denoted as A) | A (a compound having 10 or more and less than 20 is denoted as A)
7 | – | 162 | – | 3.3 | CCO[C@@H]1C[C@H]2C(=O)NC3(CCC3)C(=O)N(C)[C@@H](C3CCCC3)C(=O)N(C)[C@H](C(=O)N(C)C)CC(=O)N(C)[C@@H](CC3CCCC3)C(=O)N[C@@H]([C@@H](C)CC)C(=O)N(C)CC(=O)N(C)[C@H]3C/C=C\CCN(C3=O)[C@@H](Cc3ccc(C)cc3)C(=O)N(C)CC(=O)N[C@@H](CCc3ccc(CC)c(F)c3)C(=O)N2C1 [PP2686] | – | – | A (a compound having 10 or more and less than 20 is denoted as A) | A (a compound having 10 or more and less than 20 is denoted as A)
